Molecular target: T1, androgen receptor (AR) (Rattus norvegicus, UniProt P15207)
T1 construct: Ventral prostates were obtained form rats castrated 24 h prior to sacrifice; from tissue; host or cells: rat ventral prostate cytosol (castrated rats, charcoal-treated)
T1 sequence (P15207 1-902): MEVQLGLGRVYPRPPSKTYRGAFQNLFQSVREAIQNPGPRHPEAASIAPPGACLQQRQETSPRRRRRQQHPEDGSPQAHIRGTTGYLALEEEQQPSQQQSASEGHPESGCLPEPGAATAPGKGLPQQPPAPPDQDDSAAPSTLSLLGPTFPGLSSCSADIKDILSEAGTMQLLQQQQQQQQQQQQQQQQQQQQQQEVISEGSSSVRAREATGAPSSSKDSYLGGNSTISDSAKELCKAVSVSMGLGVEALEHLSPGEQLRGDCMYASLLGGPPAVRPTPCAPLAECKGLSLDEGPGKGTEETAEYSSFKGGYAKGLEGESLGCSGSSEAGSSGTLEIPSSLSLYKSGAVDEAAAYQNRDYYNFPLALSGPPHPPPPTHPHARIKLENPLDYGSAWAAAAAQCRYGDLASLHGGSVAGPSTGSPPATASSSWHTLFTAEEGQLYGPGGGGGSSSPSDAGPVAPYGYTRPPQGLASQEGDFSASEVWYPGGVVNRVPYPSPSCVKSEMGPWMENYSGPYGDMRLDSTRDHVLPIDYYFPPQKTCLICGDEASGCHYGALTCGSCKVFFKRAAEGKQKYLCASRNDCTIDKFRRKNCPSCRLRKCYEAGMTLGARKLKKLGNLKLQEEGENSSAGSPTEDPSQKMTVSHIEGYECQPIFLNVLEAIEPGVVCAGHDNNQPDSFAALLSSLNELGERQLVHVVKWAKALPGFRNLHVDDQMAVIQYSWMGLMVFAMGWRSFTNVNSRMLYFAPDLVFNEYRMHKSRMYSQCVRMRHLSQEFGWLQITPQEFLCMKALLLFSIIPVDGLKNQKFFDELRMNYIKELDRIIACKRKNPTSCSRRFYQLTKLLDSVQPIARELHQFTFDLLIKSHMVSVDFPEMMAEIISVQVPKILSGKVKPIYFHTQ
Experiment: AR binding assay, competition with [3H]-mibolerone binding in rat ventral prostate cytosol
Conditions: 1 nM [3H]-mibolerone, overnight at 0° C.; for inhibition at 0.2 µM: test compound 0.2 μM; for inhibition at 2 µM: test compound 2.0 μM
Description: Ventral prostates were obtained form rats castrated 24 h prior to sacrifice. Fresh prostate was minced and washed with Buffer A (Schilling and Liao, Prostate, 5:581-588, 1984). The minces were then homogenized in 3× volume of Buffer A containing protease inhibitors (Complete, Mini, EDTA-free Roche). The homogenate was centrifuged at 30000 g for 30 min. The resultant supernatants were treated with 1×volume of dextran-coated charcoal solution (12.5 g activated charcoal, 12.5 g dextran per liter of buffer A) to remove endogenous steroids. The samples were incubated for 5 min and centrifuged at 16000 g for 10 min. Aliquots of the charcoal-treated cytosol were taken for androgen receptor assays. All procedures were carried out at 0-4° C.
Cytosol androgen receptor concentration was determined as described (Isomaa et al., Endocrinology, 111: 833-843, 1982) with minor modifications. Cytosol preparations were prepared as described above, and bound and free steroids were separated by treatment with an equal volume of dextran-charcoal suspension for 5 min at 4° C. followed by centrifugation at 16000 g for 10 min. Bound radioactivity was determined by counting supernatant fractions in 1 ml of OptiPhase HiSafe3 or OptiPhase Supermix (PerkinElmer).
Cytosol preparations were labelled with 1 nM [^3H]-mibolerone overnight at 0° C. (total). To determine AR binding activity of the compounds of the present invention (test compounds), the ability of test compounds to compete with [^3H]7α,17α-dimethyl-17β-hydroxy-4-estren-3-one ([^3H]-mibolerone) binding was studied. 1 nM [^3H]-mibolerone and test compounds in two concentrations (0.2 and 2 uM) were incubated overnight at 0° C. To determine non-specific binding, parallel incubations were carried out using 1 nM concentration [^3H]-mibolerone with 500-fold molar excess of unlabelled testosterone. Two to four replicates were used for each sample. After incubation, bound and free steroids were separated as described above and bound radioactivity was determined. The ability of the test compounds to bind AR is reported as reduction in bound radioactivity obtained with 1 nM [^3H]-mibolerone. The results (% inhibition) were calculated as: % inhibition=100−(100×(averagetest compound/averagetotal)).

Structure (SMILES) | inhibition at 0.2 µM [%] | inhibition at 2 µM [%]
CC(=O)Nc1ccc(OCC(C)(O)C(=O)Nc2ccc([N+](=O)[O-])c(C)c2)cc1 (centres unmarked) [Example 1, 3-(4-Acetylaminophenoxy)-2-hydroxy-2-methyl-N-(3-methyl-4-nitrophenyl)propionamide] | 91 | 101
CC(=O)Nc1ccc(OCC(C)(O)C(=O)Nc2ccc([N+](=O)[O-])c(C)c2)cc1F (centres unmarked) [Example 2, 3-(4-Acetylamino-3-fluorophenoxy)-2-hydroxy-2-methyl-N-(3-methyl-4-nitrophenyl)propionamide] | 93 | 100
CC(=O)Nc1ccc(OC[C@](C)(O)C(=O)Nc2ccc([N+](=O)[O-])c(C)c2)cc1F [Example 4, (2S)-3-(4-Acetylamino-3-fluorophenoxy)-2-hydroxy-2-methyl-N-(3-methyl-4-nitrophenyl)propionamide] | 90 | 88
Cc1cc(NC(=O)C(C)(O)COc2ccc(C(N)=O)cc2)ccc1[N+](=O)[O-] (centres unmarked) [Example 5, 4-[2-Hydroxy-2-(3-methyl-4-nitrophenylcarbamoyl)propoxy]benzamide] | 25 | 74
Cc1cc(NC(=O)C(C)(O)COc2ccc(Cl)c(Cl)c2)ccc1[N+](=O)[O-] (centres unmarked) [Example 6, 3-(3,4-Dichlorophenoxy)-2-hydroxy-2-methyl-N-(3-methyl-4-nitrophenyl)propionamide] | 68 | 95
CCOC(=O)c1ccc(OCC(C)(O)C(=O)Nc2ccc([N+](=O)[O-])c(C)c2)cc1 (centres unmarked) [Example 7, 4-[2-Hydroxy-2-(3-methyl-4-nitrophenylcarbamoyl)propoxy]benzoic acid ethyl ester] | 74 | 98
Cc1cc(NC(=O)C(C)(O)COc2ccc(F)c(Cl)c2)ccc1[N+](=O)[O-] (centres unmarked) [Example 8, 3-(3-Chloro-4-fluorophenoxy)-2-hydroxy-2-methyl-N-(3-methyl-4-nitrophenyl)propionamide] | 93 | 109
Cc1cc(NC(=O)C(C)(O)COc2ccc(OC(F)(F)F)cc2)ccc1[N+](=O)[O-] (centres unmarked) [Example 9, 2-Hydroxy-2-methyl-N-(3-methyl-4-nitrophenyl)-3-(4-trifluoromethoxyphenoxy)propionamide] | 41 | 102
Cc1cc(NC(=O)C(C)(O)COc2cccc(Cl)c2Cl)ccc1[N+](=O)[O-] (centres unmarked) [Example 10, 3-(2,3-Dichlorophenoxy)-2-hydroxy-2-methyl-N-(3-methyl-4-nitrophenyl)propionamide] | 5 | 83
Cc1cc(NC(=O)C(C)(O)COc2ccc(F)cc2)ccc1[N+](=O)[O-] (centres unmarked) [Example 11, 3-(4-Fluorophenoxy)-2-hydroxy-2-methyl-N-(3-methyl-4-nitrophenyl)propionamide] | 98 | 105
Cc1ccc(OCC(C)(O)C(=O)Nc2ccc([N+](=O)[O-])c(C)c2)cc1 (centres unmarked) [Example 12, 2-Hydroxy-2-methyl-N-(3-methyl-4-nitrophenyl)-3-p-tolyloxypropionamide] | 77 | 101
Cc1cc(NC(=O)C(C)(O)COc2ccc(NC(=O)C(F)(F)F)cc2)ccc1[N+](=O)[O-] (centres unmarked) [Example 13, 2-Hydroxy-2-methyl-N-(3-methyl-4-nitrophenyl)-3-[4-(2,2,2-trifluoroacetylamino)phenoxy]propionamide] | 77 | 90
Cc1cc(NC(=O)C(C)(O)COc2ccccc2)ccc1[N+](=O)[O-] (centres unmarked) [Example 14, 2-Hydroxy-2-methyl-N-(3-methyl-4-nitrophenyl)-3-phenoxypropionamide] | 75 | 95
Cc1cc(NC(=O)C(C)(O)COc2ccc(C(F)(F)F)cc2)ccc1[N+](=O)[O-] (centres unmarked) [Example 15, 2-Hydroxy-2-methyl-N-(3-methyl-4-nitrophenyl)-3-(4-trifluoromethylphenoxy)propionamide] | 46 | 77
CC(=O)c1ccc(OCC(C)(O)C(=O)Nc2ccc([N+](=O)[O-])c(C)c2)cc1 (centres unmarked) [Example 16, 3-(4-Acetylphenoxy)-2-hydroxy-2-methyl-N-(3-methyl-4-nitrophenyl)propionamide] | 50 | 91
Cc1cc(NC(=O)C(C)(O)COc2ccc(C#N)cc2)ccc1[N+](=O)[O-] (centres unmarked) [Example 17, 3-(4-Cyanophenoxy)-2-hydroxy-2-methyl-N-(3-methyl-4-nitrophenyl)propionamide] | 95 | 98
Cc1cc(NC(=O)C(C)(O)COc2cccc(F)c2)ccc1[N+](=O)[O-] (centres unmarked) [Example 18, 3-(3-Fluorophenoxy)-2-hydroxy-2-methyl-N-(3-methyl-4-nitrophenyl)propionamide] | 90 | 99
Cc1cc(NC(=O)C(C)(O)COc2ccccc2F)ccc1[N+](=O)[O-] (centres unmarked) [Example 19, 3-(2-Fluorophenoxy)-2-hydroxy-2-methyl-N-(3-methyl-4-nitrophenyl)propionamide] | 83 | 99
Cc1cc(NC(=O)C(C)(O)COc2ccc(CCO)cc2)ccc1[N+](=O)[O-] (centres unmarked) [Example 20, 2-Hydroxy-3-[4-(2-hydroxyethyl)phenoxy]-2-methyl-N-(3-methyl-4-nitrophenyl)propionamide] | 13 | 83
Cc1cc(NC(=O)C(C)(O)COc2c(Cl)cccc2Cl)ccc1[N+](=O)[O-] (centres unmarked) [Example 21, 3-(2,6-Dichlorophenoxy)-2-hydroxy-2-methyl-N-(3-methyl-4-nitrophenyl)propionamide] | 26 | 91
Cc1cc(NC(=O)C(C)(O)COc2ccc(Cl)cc2)ccc1[N+](=O)[O-] (centres unmarked) [Example 23, 3-(4-Chlorophenoxy)-2-hydroxy-2-methyl-N-(3-methyl-4-nitrophenyl)propionamide] | 88 | 92
Cc1cc(NC(=O)C(C)(O)COc2ccc(Br)cc2)ccc1[N+](=O)[O-] (centres unmarked) [Example 24, 3-(4-Bromophenoxy)-2-hydroxy-2-methyl-N-(3-methyl-4-nitrophenyl)propionamide] | 75 | 93
COc1ccc(OCC(C)(O)C(=O)Nc2ccc([N+](=O)[O-])c(C)c2)cc1 (centres unmarked) [Example 25, 2-Hydroxy-3-(4-methoxyphenoxy)-2-methyl-N-(3-methyl-4-nitrophenyl)propionamide] | 96 | 98
Cc1cc(NC(=O)C(C)(O)COc2ccc3c(c2)OCO3)ccc1[N+](=O)[O-] (centres unmarked) [Example 26, 3-(Benzo[1,3]dioxol-5-yloxy)-2-hydroxy-2-methyl-N-(3-methyl-4-nitrophenyl)propionamide] | 62 | 92
COc1ccc(OCC(C)(O)C(=O)Nc2ccc([N+](=O)[O-])c(C)c2)cc1OC (centres unmarked) [Example 27, 3-(3,4-Dimethoxyphenoxy)-2-hydroxy-2-methyl-N-(3-methyl-4-nitrophenyl)propionamide] | 34 | 89
